Results reported in patent US20100015058A1, “RADIOLABELED BBN-RGD HETERODIMERS FOR CANCER TARGETING” (STANFORD UNIVERSITY, priority 2008, published 2010).

Experiments:
in vivo [1] = experiment: in vivo; parameters: species or system mice; details: female, BALB/c, mouse, iv, 3.7 MBq, total radioactivity
Method: The 4T1 murine breast cancer cell line was purchased from American Type Culture Collection and grown in RMPI 1640 medium (Invitrogen Corp.) supplemented with 10% (v/v) fetal bovine serum (Invitrogen) at 37° C. with 5% CO2. The 4T1 tumor model was generated by subcutaneous injection of 5×10^6 tumor cells into the left front flank of female normal BALB/c mice (Harlan).
Five-minute static PET images were then acquired at 2 h after injection (n=3/group).

in vivo [2] = experiment: in vivo; parameters: species or system mice; details: BALB/c, mouse, iv, 370 kBq, total radioactivity, pancreatic uptake
Method: All mice were sacrificed at 1 h after injection of the tracer. Blood, tumor, and major organs and tissues were collected and wet-weighed. Stomach and intestines were cleaned of their contents in this experiment. The radioactivity in the tissue was measured using a g-counter (Packard). The results were presented as percentage injected dose per gram of tissue (% ID/g). Values were expressed as mean 6 SD (n=4/group).

CSCC[C@H](NC(=O)[C@H](CC(C)C)NC(=O)[C@H](Cc1c[nH]cn1)NC(=O)CNC(=O)[C@@H](NC(=O)[C@H](C)NC(=O)[C@H](Cc1c[nH]c2ccccc12)NC(=O)[C@H](CCC(N)=O)NC(=O)CCCCCNC(=O)CC[C@H](NC(=S)Nc1ccc(C[C@H]2CN(CC(=O)O)CCN(CC(=O)O)CCN2CC(=O)O)cc1)C(=O)NCCCC[C@@H]1NC(=O)[C@@H](Cc2ccc(O)cc2)NC(=O)[C@H](CC(=O)O)NC(=O)CNC(=O)[C@H](CCCNC(=N)N)NC1=O)C(C)C)C(N)=O [^64Cu-NOTA-RGD-BBN, metal not drawn] showed a tissue uptake at 2 h (in vivo [1]) of 1.88 ± 0.28 %ID/g and a tissue uptake at 1 h (in vivo [2]) of 7.03 ± 1.96 %ID/g.
